Test results taken from patent US20190142744A1, “NUCLEIC ACID NANOCAGES, COMPOSITIONS, AND USES THEREOF” (North Carolina State University, priority 2015, published 2019).

Columns and labels:
[1] = tested on: MCF-7 cells; assay: Determination of endocytosis pathways in MCF-7 cells; assay type: cell-based, human; conditions: CPZ 10 μM, AMI 1 mM, DOX 2 μM, 2 h
Procedure: MCF-7 cells were seeded in 6-well plates (1×10^4 cells per well) and culture for 48 h. […] Then the cells were incubated with DOX/FA-NCl/NCa at DOX concentration of 2 μM or FA-NCI/AF488-NCa of the same concentration in the presence of the inhibitors for another 2 h. After washing the cells by 4° C. PBS twice, the cells were lysed with Pierce IP lysis buffer (Thermo Scientific) and centrifuged. Fluorescence of DOX and AF488 and protein concentration in the supernatant were measured, respectively, by a microplate reader (Infinite […], Tecan).

[2] = tested on: U2OS.EGFP cells; assay: Determination of endocytosis pathways in U2OS.EGFP cells; assay type: cell-based, human; conditions: MCD 3 mM, AMI 1 mM, flow cytometry
Procedure: U2OS.EGFP cells were seeded in 24-well plates (˜25000 cells/well) and cultured for 2 d. Then the cells were pre-incubated with several endocytosis inhibitors^[19b], such as chlorpromazine (CPZ, 10 μM) for clathrin-mediated endocytosis, nystatin (NYS, 25 μg/mL) for caveolin-mediated endocytosis, methyl-β-cyclodextrin (MCD, 3 mM) for lipid raft and amiloride (AMI, 1 mM) for macropinocytosis, for 1 h at 37° C., respectively. Afterwards, the cells were incubated with AF647-Cas9/sgRNA/NC/PEI for another 2 h in the presence of the inhibitors. Cells were then washed, trypsinized and resuspended in full serum medium, intracellular AF647 fluorescence intensities were analyzed by flow cytometry.

[3] = Stability of DNA NC incubated with Cas9/sgRNA (agarose gel); assay type: physicochemical; conditions: Cas9/sgRNA 24 h
Procedure: The DNA NCs were prepared by RCA using cyclized single stranded DNA (ssDNA) templates. 5′ phosphorylated linear ssDNA templates (FIG. 21) were cyclized by CircLigase II ssDNA ligase (Epicentre) following manufacture's instructions. Unligated ssDNA chains were removed with 1 U Exo I (NEB) at 37° C. for 45 min followed by heat inactivation at 80° C. for 15 min. The cyclized ssDNA template (10 pmol) was added into 1 mL 1× isothermal amplification buffer (NEB) together with 0.5 μM primer and 200 μM dNTP and heated to 95° C. for 5 min. After hybridizing the template and primer by cooling the mixture to room temperature, Bst 2.0 DNA polymerase (0.2 U/μL) was added to initiate the RCA. The RCA was performed at 65° C. overnight and the denatured polymerase after the reaction was removed by centrifugation at 14,000×g for 2 min. […] The synthesized DNA NCs were analyzed by 0.8% agarose gel electrophoresis and Nanodrop 2000C (Thermal Scientific) was applied to measure the concentration and purity of the DNA NC. […] Zeta potential and particle size of NC were measured with a Zetasizer (Malvern). To image the NC by atomic force microscopy (AFM), the NC was dropped and dried onto a silicon wafer (Ted Pella) and analyzed on a Nanoscope AFM instrument (Veeco, Santa Barbara, Calif.) using tapping mode in ambient air.

[4] = tested on: EGFP gene in U2OS.EGFP cells; assay: EGFP gene disruption assay in U2OS.EGFP cells (fluorescence microscopy, flow cytometry); assay type: cell-based, human; conditions: NC-23, NC-12, NC-0 coated with PEI; different Cas9/sgRNA molar ratios
Procedure: The reporter cell line U2OS.EGFP with a single copy of destabilized EGFP gene integrated into the genome was a generous gift from Dr. J Keith Joung at Massachusetts General Hospital.^[6b] The cells were cultured in a 37° C. incubator under 5% CO2 and 90% humidity with full serum medium: Dulbecco's Modified Eagle's Medium supplemented with 10% (v/v) FBS, 2 mM GlutaMAX (Life Technologies), penicillin (100 U/mL) and streptomycin (100 μg/mL). U2OS.EGFP cells were seeded into 24-well plates (˜25,000 cells per well) one day before the transfection. […] Two days after the delivery, the cells were analyzed using a fluorescent microscope (IX71, Olympus). For the flow cytometry analysis, the cells were washed with ice cold PBS twice and trypsinized with 0.05% trypsin (Mediatech) at 37° C. for 1-2 min. Afterwards, the cells were washed and resuspended in full serum medium and analyzed by a BD Accuri C6 flow cytometer (BD Biosciences).

Molecule | effect of endocytosis inhibitor on internalization of DOX/FA-NCl/NCa [1] | effect of endocytosis inhibitor on uptake of Cas9/sgRNA/NC-12/PEI (AF647-Cas9) [2] | resistance of DNA NC to Cas9/sgRNA degradation [3] | also measured
CN(C)CCCN1c2ccccc2Sc2ccc(Cl)cc21 [chlorpromazine] | pronounced effects in inhibiting the internalization |  |  | 
methyl-β-cyclodextrin |  | greatest reduction in Cas9 uptake |  | 
N=C(N)NC(=O)c1nc(Cl)c(N)nc1N [amiloride] | pronounced effects in inhibiting the internalization | greatest reduction in Cas9 uptake |  | 
NC-23: DNA NC variant with 23 nucleotides complementary to the sgRNA (nucleic acid, DNA nanoclew made by rolling circle amplification of circularized template, further chemistry not given here; the letters are possibly those of the target site, DNA NC variant with 23 nucleotides complementary to the sgRNA) DNA: GGGCACGGGCAGCTTGCCGGTGGAAGCTAGATGCATCTAGCAAGCGCCGCCACTGATTTCACCGCTTCAAGCTAGATGCATCTAGCAAT |  |  | resistant to Cas9/sgRNA degradation | 
NC-12: DNA nanoclew encoding 12 nucleotides complementary to the 5′ end of the sgRNA (nucleic acid, Rolling circle amplification template for DNA nanoclew, further chemistry not given here; the letters are possibly those of the target site, DNA nanoclew encoding 12 nucleotides complementary to the 5′ end of the sgRNA) DNA: GCTACCGGGCAGCTTGCATCAATAAGCTAGATGCATCTAGCAAGCGCCGCCACTGATTTCACCGCTTCAAGCTAGATGCATCTAGCAAT |  |  |  | fraction of EGFP negative cells among DNA NC variants [4]: highest fraction of EGFP negative cells
NC-0: DNA NC variant with 0 nucleotides complementary to the sgRNA (nucleic acid, DNA nanoclew made by rolling circle amplification of circularized template, further chemistry not given here; the letters are possibly those of the target site, DNA NC variant with 0 nucleotides complementary to the sgRNA) DNA: GAGAAACGAGTGCGGTCACAGCTAAGCTAGATGCATCTAGCAAGCGCCGCCACTGATTTCACCGCTTCAAGCTAGATGCATCTAGCAAT |  |  | resistant to Cas9/sgRNA degradation | 
